Assay results taken from publication PMC12073402, “A Selective MAP3K1 Inhibitor Facilitates Discovery of NPM1 as a Member of the Network” (Molecules, 2025).

What was measured:
Experiment in all cases: KiNativ kinome profiling in PANC-1 lysate
Format in all cases: binding
[1] = target: T1, MAP2K4 (Homo sapiens, UniProt P45985)
T1 construct: endogenous in cells; host or cells: PANC-1 cell lysate
Method in brief: (§1)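 PANC-1 lysates were incubated with 5 μM inhibitor or DMSO, then labeled with a desthiobiotin-ATP acyl-phosphate probe that biotinylates conserved kinase lysines. Tryptic peptides were streptavidin-enriched and quantified by LC-MS/MS, reported as % change in MS signal from duplicate treated and duplicate control samples.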

[2] = test system: DRAK1, DRAK2; settings: 5 µM; ATP Loop; GKFAVVR
Method in brief: as §1

[3] = target: T2, MLKL (Homo sapiens, UniProt Q8NB16); settings: Lys1
T2 construct: endogenous in cells; host or cells: PANC-1
Method in brief: as §1

[4] = target: T3, AXL (Homo sapiens, UniProt P30530); settings: Activation Loop
T3 construct: endogenous in cells; host or cells: PANC-1 cell lysate
Method in brief: as §1

[5] = test system: MST1, MST2; settings: 5 µM
Method in brief: as §1

[6] = target: T4, MAP2K3 (Homo sapiens, UniProt P46734)
T4 construct: endogenous in cells; host or cells: PANC-1 cell lysate
T4 sequence (P46734 1-347): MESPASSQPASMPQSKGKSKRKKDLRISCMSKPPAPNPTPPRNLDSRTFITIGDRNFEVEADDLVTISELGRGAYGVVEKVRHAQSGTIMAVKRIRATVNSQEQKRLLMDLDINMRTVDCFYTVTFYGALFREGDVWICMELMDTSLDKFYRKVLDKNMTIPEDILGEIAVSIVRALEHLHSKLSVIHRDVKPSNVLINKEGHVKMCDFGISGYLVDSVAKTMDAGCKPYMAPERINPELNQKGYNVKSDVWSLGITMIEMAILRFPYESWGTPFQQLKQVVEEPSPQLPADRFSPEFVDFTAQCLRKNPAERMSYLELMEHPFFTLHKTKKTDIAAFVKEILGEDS
Method in brief: as §1

[7] = target: T5, LOK (Homo sapiens, UniProt O94804)
T5 construct: we opted to conduct a kinome screen (KiNativ) in PANC-1 cell lysates; endogenous in cells; host or cells: PANC-1 cell lysate
Method in brief: as §1

[8] = target: T6, CaMK1d (Homo sapiens, UniProt Q8IU85)
T6 construct: endogenous in cells; host or cells: PANC-1 cell lysate
Method in brief: as §1

[9] = target: T7, PI4K2B (Homo sapiens, UniProt Q8TCG2); settings: ATP
T7 construct: endogenous in cells; host or cells: PANC-1 cell lysate
Method in brief: as §1

[10] = target: T8, CDK10 (Homo sapiens, UniProt Q15131); settings: Lys2
T8 construct: endogenous in cells; host or cells: PANC-1 cell lysate
Method in brief: as §1

[11] = target: T9, IKKb (Homo sapiens, UniProt O14920)
T9 construct: we opted to conduct a kinome screen (KiNativ) in PANC-1 cell lysates; endogenous in cells; host or cells: PANC-1 cell lysate
T9 sequence (O14920 1-756): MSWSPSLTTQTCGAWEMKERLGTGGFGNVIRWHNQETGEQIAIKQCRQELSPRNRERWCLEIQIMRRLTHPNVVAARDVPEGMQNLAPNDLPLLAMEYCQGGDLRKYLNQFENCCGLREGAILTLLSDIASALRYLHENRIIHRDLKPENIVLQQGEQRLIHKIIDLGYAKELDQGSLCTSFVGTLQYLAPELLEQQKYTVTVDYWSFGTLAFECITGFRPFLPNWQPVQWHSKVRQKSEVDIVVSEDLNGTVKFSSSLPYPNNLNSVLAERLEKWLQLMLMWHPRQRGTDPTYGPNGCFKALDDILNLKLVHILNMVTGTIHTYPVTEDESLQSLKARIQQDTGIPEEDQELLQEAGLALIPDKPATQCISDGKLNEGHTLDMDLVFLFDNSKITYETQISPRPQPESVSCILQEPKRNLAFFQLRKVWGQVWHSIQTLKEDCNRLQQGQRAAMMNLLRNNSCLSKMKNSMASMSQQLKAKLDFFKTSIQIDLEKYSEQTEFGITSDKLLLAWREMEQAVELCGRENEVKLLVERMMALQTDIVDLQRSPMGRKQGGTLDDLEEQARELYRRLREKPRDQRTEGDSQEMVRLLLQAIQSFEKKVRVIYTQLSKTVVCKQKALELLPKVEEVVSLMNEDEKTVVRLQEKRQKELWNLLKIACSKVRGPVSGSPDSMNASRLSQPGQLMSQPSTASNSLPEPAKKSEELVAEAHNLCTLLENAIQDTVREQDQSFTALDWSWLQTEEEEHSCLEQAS
Method in brief: as §1

[12] = target: T10, PLK1 (Homo sapiens, UniProt P53350)
T10 construct: endogenous in cells; host or cells: PANC-1 cell lysate
Method in brief: as §1

T1 sequence (P45985 whole entry): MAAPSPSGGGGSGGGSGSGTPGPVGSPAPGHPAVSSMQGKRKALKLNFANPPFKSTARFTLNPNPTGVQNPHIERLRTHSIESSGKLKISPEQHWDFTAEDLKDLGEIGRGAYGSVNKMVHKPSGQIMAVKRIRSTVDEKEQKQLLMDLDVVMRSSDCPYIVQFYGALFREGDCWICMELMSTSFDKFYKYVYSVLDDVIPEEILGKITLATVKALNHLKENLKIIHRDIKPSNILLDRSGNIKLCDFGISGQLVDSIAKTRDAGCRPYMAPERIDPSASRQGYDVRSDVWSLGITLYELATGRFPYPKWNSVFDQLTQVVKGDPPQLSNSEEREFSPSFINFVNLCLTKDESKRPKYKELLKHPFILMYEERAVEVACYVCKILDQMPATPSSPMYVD
T6 sequence (Q8IU85 whole entry): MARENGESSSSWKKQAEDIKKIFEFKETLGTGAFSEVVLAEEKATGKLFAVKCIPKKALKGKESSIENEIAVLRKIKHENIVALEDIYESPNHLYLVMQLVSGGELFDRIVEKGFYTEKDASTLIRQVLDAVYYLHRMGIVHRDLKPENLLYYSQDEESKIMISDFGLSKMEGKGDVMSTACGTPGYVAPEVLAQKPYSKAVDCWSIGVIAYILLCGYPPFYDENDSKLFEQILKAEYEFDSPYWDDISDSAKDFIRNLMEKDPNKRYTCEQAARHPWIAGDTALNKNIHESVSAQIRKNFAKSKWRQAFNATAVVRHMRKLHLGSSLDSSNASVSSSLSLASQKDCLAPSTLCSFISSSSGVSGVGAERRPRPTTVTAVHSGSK
T5 sequence (O94804 whole entry): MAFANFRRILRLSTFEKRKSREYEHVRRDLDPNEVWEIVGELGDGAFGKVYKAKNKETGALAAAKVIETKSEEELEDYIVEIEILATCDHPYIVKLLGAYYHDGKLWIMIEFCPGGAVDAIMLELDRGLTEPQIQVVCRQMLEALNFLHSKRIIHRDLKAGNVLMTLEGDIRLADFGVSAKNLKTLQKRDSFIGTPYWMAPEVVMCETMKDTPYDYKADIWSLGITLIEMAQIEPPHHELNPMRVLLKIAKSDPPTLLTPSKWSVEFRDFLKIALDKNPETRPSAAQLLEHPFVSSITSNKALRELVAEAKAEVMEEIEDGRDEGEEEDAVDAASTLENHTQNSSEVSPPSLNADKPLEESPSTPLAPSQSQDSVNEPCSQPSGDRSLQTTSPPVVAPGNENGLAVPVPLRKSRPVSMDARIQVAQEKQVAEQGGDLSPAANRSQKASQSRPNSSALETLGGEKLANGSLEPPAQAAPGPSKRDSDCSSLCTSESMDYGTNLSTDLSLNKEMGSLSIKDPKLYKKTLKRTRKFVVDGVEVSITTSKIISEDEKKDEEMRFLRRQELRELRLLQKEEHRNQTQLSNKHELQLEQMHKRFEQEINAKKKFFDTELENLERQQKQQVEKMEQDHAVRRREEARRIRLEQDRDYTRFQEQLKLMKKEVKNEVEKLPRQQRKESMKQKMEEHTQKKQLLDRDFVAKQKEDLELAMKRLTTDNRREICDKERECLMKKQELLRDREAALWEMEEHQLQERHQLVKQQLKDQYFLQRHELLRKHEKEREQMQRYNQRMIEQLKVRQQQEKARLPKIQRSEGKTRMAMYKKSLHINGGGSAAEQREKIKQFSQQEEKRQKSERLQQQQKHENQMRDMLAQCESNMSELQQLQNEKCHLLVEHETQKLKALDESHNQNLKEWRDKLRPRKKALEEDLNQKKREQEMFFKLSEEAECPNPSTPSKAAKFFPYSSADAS
T10 sequence (P53350 whole entry): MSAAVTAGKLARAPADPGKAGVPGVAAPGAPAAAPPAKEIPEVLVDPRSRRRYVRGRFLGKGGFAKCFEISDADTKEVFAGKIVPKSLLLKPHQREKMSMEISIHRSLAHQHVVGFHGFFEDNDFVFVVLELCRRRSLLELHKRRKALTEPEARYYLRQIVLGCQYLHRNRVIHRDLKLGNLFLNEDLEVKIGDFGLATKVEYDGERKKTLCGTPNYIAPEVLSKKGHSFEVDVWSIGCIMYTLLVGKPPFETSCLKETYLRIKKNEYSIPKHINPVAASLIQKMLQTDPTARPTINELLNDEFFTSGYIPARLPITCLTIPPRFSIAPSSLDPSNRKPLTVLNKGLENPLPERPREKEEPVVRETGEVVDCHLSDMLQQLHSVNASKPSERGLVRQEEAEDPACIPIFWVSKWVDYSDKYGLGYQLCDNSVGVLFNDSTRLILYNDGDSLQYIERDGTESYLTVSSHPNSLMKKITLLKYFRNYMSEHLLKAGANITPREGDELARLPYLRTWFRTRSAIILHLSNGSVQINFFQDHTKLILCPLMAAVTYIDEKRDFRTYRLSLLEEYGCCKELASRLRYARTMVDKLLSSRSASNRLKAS
T3 sequence (P30530 26-894): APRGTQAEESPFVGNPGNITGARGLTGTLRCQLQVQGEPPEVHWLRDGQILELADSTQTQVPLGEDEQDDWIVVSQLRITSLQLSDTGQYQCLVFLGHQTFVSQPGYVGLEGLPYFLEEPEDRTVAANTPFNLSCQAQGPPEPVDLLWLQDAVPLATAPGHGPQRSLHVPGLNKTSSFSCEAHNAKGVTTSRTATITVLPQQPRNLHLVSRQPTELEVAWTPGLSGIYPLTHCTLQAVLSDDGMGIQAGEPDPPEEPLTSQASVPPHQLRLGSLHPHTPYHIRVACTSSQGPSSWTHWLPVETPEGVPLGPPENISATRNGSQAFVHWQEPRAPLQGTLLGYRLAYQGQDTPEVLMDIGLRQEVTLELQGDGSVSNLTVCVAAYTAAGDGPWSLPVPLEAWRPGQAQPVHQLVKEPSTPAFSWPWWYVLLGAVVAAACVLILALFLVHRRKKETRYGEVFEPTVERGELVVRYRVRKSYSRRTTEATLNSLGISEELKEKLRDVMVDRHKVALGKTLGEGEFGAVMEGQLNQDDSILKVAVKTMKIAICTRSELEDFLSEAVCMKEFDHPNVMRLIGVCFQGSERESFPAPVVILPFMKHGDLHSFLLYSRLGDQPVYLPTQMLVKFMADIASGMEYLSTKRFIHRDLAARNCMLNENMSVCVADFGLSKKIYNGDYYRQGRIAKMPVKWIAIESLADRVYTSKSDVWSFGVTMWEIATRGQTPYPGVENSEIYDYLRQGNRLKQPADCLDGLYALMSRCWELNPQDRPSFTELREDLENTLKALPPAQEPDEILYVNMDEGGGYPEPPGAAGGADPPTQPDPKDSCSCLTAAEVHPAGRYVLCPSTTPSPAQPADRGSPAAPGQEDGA
T8 sequence (Q15131 whole entry): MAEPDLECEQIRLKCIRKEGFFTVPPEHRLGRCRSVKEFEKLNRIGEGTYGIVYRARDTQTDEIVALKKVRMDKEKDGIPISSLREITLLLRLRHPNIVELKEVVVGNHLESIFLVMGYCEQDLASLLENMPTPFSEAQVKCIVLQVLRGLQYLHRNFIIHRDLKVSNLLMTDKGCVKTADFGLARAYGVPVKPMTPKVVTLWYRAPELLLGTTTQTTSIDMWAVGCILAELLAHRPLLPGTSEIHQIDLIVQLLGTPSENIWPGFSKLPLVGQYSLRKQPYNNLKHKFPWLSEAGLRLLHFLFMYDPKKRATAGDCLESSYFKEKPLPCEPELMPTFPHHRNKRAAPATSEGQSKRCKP
T7 sequence (Q8TCG2 whole entry): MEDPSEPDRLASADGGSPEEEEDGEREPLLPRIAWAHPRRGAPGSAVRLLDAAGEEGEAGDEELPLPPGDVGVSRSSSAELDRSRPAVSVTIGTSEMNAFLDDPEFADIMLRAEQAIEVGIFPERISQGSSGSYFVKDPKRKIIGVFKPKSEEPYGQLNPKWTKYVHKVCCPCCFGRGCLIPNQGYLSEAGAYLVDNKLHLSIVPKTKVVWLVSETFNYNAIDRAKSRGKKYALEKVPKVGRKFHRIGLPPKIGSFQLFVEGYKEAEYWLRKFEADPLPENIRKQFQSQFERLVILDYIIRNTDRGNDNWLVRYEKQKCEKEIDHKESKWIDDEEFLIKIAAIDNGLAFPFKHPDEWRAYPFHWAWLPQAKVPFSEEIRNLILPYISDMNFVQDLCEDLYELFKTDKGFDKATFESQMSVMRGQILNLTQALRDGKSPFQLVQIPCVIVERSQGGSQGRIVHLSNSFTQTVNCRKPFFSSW
T2 sequence (Q8NB16 whole entry): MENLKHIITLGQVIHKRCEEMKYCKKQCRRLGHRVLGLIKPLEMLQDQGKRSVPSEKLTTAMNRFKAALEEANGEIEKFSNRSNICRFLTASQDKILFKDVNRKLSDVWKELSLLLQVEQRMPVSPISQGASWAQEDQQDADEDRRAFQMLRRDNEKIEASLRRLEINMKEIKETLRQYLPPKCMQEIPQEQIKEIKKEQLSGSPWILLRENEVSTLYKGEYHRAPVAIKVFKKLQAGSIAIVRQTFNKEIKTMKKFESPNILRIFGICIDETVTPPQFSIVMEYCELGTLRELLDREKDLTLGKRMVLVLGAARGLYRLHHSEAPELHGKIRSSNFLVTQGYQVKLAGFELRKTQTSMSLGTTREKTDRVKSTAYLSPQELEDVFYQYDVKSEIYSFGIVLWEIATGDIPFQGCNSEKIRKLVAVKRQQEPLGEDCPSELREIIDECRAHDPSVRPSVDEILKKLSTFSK

What does the source list for `Cn1cc(-c2cnc3ccc(NC(=O)Nc4ccc(F)c(C(F)(F)F)c4)cc3n2)cn1` [51-106, 1-(4-Fluoro-3-(trifluoromethyl)phenyl)-3-(3-(1-methyl-1H-pyrazol-4-yl)quinoxalin-6-yl)urea]?
inhibition at 5 µM ([1]; ATP Loop, LCDFGISGQLVDSIAKTR): 6%; inhibition at 5 µM ([1]; Lys2, DIKPSNILLDR): ≤ 0%; % Inhibition [2]: 4.6%; inhibition at 5 µM [3]: ≤ 0%; inhibition at 5 µM [4]: ≤ 0%; % Inhibition ([5]; ATP Loop, LADFGVAGQLTDTMAKR): 2.7%; % Inhibition ([5]; Lys2, DIKAGNILLNTEGHAK): NB (NB = No Binding (≤ 0)); inhibition at 5 µM ([6]; ATP Loop, MCDFGISGYLVDSVAKTMDAGCKPYMAPER): ≤ 0%; inhibition at 5 µM ([6]; Lys1, HAQSGTIMAVKR): ≤ 0%; inhibition at 5 µM ([6]; Lys2, DVKPSNVLINK): 18.5%; % Inhibition ([7]; 5 µM, Lys1, NKETGALAAAKVIETK): NB (NB = No Binding (≤ 0)); inhibition at 5 µM ([7]; Lys2, […]): ≤ 0%; inhibition at 5 µM ([8]; Lys1, LFAVKCIPK): 30.3%; inhibition at 5 µM ([8]; Lys2, DLKPENLLYYSQDEESK): ≤ 0%; inhibition at 5 µM [9]: 6.4%; inhibition at 5 µM [10]: 10.3%; inhibition at 5 µM ([11]; Lys1, WHNQETGEQIAIKQCR): 0.1%; inhibition at 5 µM ([11]; Lys2, DLKPENIVLQQGEQR): ≤ 0%; inhibition of IKKβ (in words) ([11]; 5 μM, PANC-1 lysate): not inhibited; inhibition at 5 µM ([12]; Lys1, CFEISDADTKEVFAGKIVPK): ≤ 0%; inhibition at 5 µM ([12]; Lys2, DLKLGNLFLNEDLEVK): 10.9%
